Measured values from US7476383B2, “Antibody selective for DR4 and uses thereof” (The UAB Research Foundation, priority 2000, dated 2009).
Values belong to the molecule of their own block, whether it stands above or below them. Residues, ends and D or L forms follow the SMILES beside them. *: point of attachment. Cbz = O=C(OCc1ccccc1)*; CH2F = FC*

Assays:
Jurkat cells = assay: Jurkat cell viability (ATPLite, MTT, PI exclusion); assay type: cell-based, human; details: 50 ng/ml TRA-8 overnight
Procedure: (§1) Cell viability is determined using (1) the ATPLite kit according to the manufacturer's instructions (Packard Instruments, Meriden, Conn.); (2) the MTT Cell proliferation/viability kit (Sigma); or (3) PI staining of dead cells and analyzed by flow cytometry. At end of culture, cells are stained with 10 μg/ml PI and PI negative cells are gated as viable cells. For analysis of condensed nuclei of hepatocytes, cells are stained with 10 ng/ml […] (Molecular Probes) and analyzed by flow cytometry.

MMP-1 and MMP-3 = assay: MMP ELISA of RA synovial cell supernatants; assay type: cell-based, human; details: RA synovial cells, overnight
Procedure: Thus, it is possible that TRAIL, like TNF-α, may serve as a pro-inflammatory cytokine. […] The levels of the MMP-1 and MMP-3 in the culture supernatants are determined by the ELISA kits.

DR4 = molecular target: T1, DR4 (Homo sapiens, UniProt O00220); assay: ELISA binding to DR4-Ig fusion protein; details: ELISA plates coated with DR4/hIgG1
T1 construct: fusion protein comprising the extracellular domain of human DR5 or DR4 and the Fc region of human IgG1
Procedure: ELISA plates are coated with 2 μg/ml of DR4-Ig or DR5-Ig fusion protein overnight. […] The reactions are developed by TMB substrate buffer and measured by the Benchmark Microplate Reader (BioRad). The Kd values are estimated by the one-site binding model of non-linear regression using GraphPad Prism software (GraphPad Software, San Diego, Calif.).

Daudi = assay: Apoptosis by ATPLite, overnight; assay type: cell-based, human; details: B lymphoma line Daudi
Procedure: as §1

H-9 cells = assay: Apoptosis by ATPLite, overnight; assay type: cell-based, human
Procedure: as §1

Hs683 and U251-MG = assay: Apoptosis by ATPLite, overnight; assay type: cell-based, human; details: glioma lines Hs683 and U251-MG
Procedure: as §1

Jurkat and CEM-6 = assay: Apoptosis by ATPLite, overnight; assay type: cell-based, human
Procedure: as §1

Molt-4 and U937 cells = assay: Apoptosis by ATPLite, overnight; assay type: cell-based, human
Procedure: as §1

[1] = test system: Primary peripheral blood T cells; assay: Apoptosis by ATPLite, overnight; assay type: cell-based, human
Procedure: as §1

SKW6.4, EB-3, and Raji = assay: Apoptosis by ATPLite, overnight; assay type: cell-based, human; details: B lymphoma lines SKW6.4, EB-3, Raji
Procedure: as §1

U87, U937 and Molt-4 = assay: Apoptosis by ATPLite, overnight; assay type: cell-based, human; details: glioma line U87, hematopoietic lines U937 and Molt-4
Procedure: as §1

primary B cells = assay: Apoptosis by ATPLite, overnight; assay type: cell-based, human
Procedure: as §1

OA synovial cells = assay: Apoptosis of primary synovial cells; assay type: cell-based, human; details: OA72M cells
Text: (§2) Cell viability is the percentage of the cpm of treated cells versus the cpm of untreated cells.
(§3) The expression of DR5 on a panel of eight primary cultured synovial cells from patients with RA is compared with that on eight primary cultured synovial cells from patients with osteoarthritis (hereinafter referred to as “OA”). The eight human primary RA synovial cell cultures RA-1014, RA-1016, RA-1021, RA-512, RA-707, RA-811, RA-716, and RA-929 are kindly provided by Dr. M. Ohtsuki (Sankyo Co. Ltd., Tokyo, Japan) and cultured in DMEM supplemented with 10% FCS, penicillin, streptomycin, and glutamine. The […] OA synovial cell primary cell cultures are isolated from the synovial tissues of OA patients by a standard collagenase method and cultured under the same conditions. The passage number of all primary cells is under 10. The expression of DR5 is determined by FACs analysis as described in Example 5.

RA synovial cells = assay: Apoptosis of primary synovial cells; assay type: cell-based, human; details: RA-1014, RA-811, RA-716, RA929; high concentrations (>50 ng/ml)
Text: as §2, §3

NF-κb = assay: Gel-shift assay in RA synovial cells; assay type: cell-based, human; details: 50 ng/ml TRAIL, Fas ligand or TRA-8, 20 ng/ml TNF-a
Procedure: There is considerable evidence to support the concept that there are close links between the signaling of apoptosis and the signaling of proliferation (45). It has been established that DR5 is able to activate a NF-kb pathway in addition to apoptosis signaling transduction, and that NF-κb activation may be able to transduce an anti-apoptosis signal. Therefore a gel-shift assay is carried out. […] The nuclear extracts are prepared and incubated with the […] [^32P]-labeled oligo-DNA probe. The results are analyzed using the cyclone phospha-imager (TopCount NXT, Packard Instrument Company, CT).

normal human hepatocytes = assay: Hepatocyte viability (ATPLite); assay type: cell-based
Text: For 24-hour cell viability assays, fresh normal human hepatocytes in 96-well plates were purchased from In Vitro Technology (Baltimore, Md.). […] For 6-hour viability assays, normal hepatocytes or hepatocellular cancer cells are isolated from fresh surgical specimens collected from UAB Tissue Procurement Center. All reagents for isolation of human hepatocytes including hepatocytes perfusion buffer, digest medium, washing medium, and attachment medium were purchased from Gibco. The tissue slides are digested in the Hepatocyte Digest Medium at 37° C. with shaking (50 rpm) for one hour. The isolated hepatocytes are harvested by low speed centrifugation (50 g, 3 min), and washed with the Hepatocyte Washing Medium six times. Single cell suspension of hepatocytes are cultured in the Attachment Medium containing 10% FCS in 96-well Matrigel plates (BD) for six hours. Non-attached hepatocytes are removed by twice washing with pre-warmed attachment medium.

[2] = test system: 2LMP human breast cancer xenografts; assay: 2LMP breast cancer xenografts in athymic nude mice; assay type: in vivo
Procedure: Nude mice were inoculated s.c. with the human breast cancer cell line, 2LMP. Treatment with i.p. doses of 200 μg of 2E12 occurred on days 7, 10, 14, 17, 21, and 24 after tumor cell injection. Animals received i.v. adriamycin (doxorubicin) (6 mg/kg) on days 8, 12, and 16.
Athymic nude mice were injected s.c. with 3×10^7 2LMP cells. […] The growth of tumors was monitored over time. […] Tumor size and regression rates were determined.
Data from 6 independent experiments were analyzed by individual experiment. Treatment combinations were compared with respect to in vivo anti-tumor efficacy, i.e., inhibition of tumor growth, which was measured as three endpoints; extension of tumor doubling times, percentage of tumor regressions, and growth rates over time. The actual number of days at which the tumor doubled in surface area (product of two diameters) relative to baseline on day 7 after tumor cell injection was used in the doubling time analysis. The nonparametric Kruskal-Wallis test was used for median tumor doubling time comparisons between treatments. Fisher's exact test was used to compare the proportions of tumor regressions and relapse-free regressions across treatment groups. To determine if any combination therapy produced significant synergistic inhibition of tumor growth, i.e., more than additive, the growth curves from the serial area measurements were compared using a linear mixed model approach over the first 3 weeks after start of therapy (Lindsey, J. K. Models for Repeated Measurements, pp. 100-142, Oxford, 1993). To test for synergistic effects of the combination therapies, an interaction term was included in the model. If the interaction term was significant and the effect was inhibition of growth at a rate greater than additive then the interaction was considered synergistic.
A total of 166 animals, 10 treatment groups, and 6 independent experiments were included in the aggregate analysis. Treatment combinations were compared with respect to in vivo anti-tumor efficacy. The median tumor doubling times were analyzed using the Kruskal-Wallis test and Fisher's exact test was used to compare the proportions of tumor regressions and relapse-free regressions across treatment groups.

2LMP xenografts = assay: TUNEL analysis of apoptosis in xenografts; assay type: in vivo, athymic nude mice; details: day 14; untreated 1%
Procedure: One group of mice was untreated. The xeno grafts were dissected for the study of apoptosis on day 14 after tumor cell injection. The reason for the substantial reduction in treatment intensity compared to our standard treatment protocol was to allow adequate tumor tissue for analysis on day 14. Tunel assay for apoptosis in tumor xenografts was performed as follows. Five-micron paraffin sections of tissue were mounted on Superfrost/Plus slides and heated at 58° C. for 1 h. Tissue sections were deparaffinized in three changes of xylene and rehydrated with one change of absolute ethanol, 95% ethanol, and 70% ethanol, each in 5-min increments. Then, the sections were placed in Tris-buffered saline (0.5M Tris base, 0.15 M NaCl, 0.0002% Triton X-100, pH 7.6). Apoptotic nuclei were detected using an Apop Tag Peroxidase kit (Intergen, Purchase, N.Y.). Proteinase K (20 μg/ml in distilled deionized H2O) was added to the tissue specimens and incubated at room temperature for 15 min. Endogenous peroxidases were quenched with an aqueous solution of 3% hydrogen peroxide for 5 min. […] Approximately 10 random fields were evaluated for percentage of Tunel stained and percentage of intensely stained apoptotic bodies throughout the tissue.

[3] = aggregate, number of animals (%)

T1 sequence (O00220 24-239 limits assumed): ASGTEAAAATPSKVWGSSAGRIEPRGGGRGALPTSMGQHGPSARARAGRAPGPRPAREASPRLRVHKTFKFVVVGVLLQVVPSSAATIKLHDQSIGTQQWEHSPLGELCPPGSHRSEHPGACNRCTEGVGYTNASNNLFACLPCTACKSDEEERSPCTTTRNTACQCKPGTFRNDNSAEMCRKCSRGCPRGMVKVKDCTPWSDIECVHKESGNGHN

Molecule: CC(NC(=O)C(NC(=O)OCc1ccccc1)C(C)C)C(=O)NC(CC(=O)O)C(=O)CF (stereo not drawn) [Z-VAD] (Cbz-Val-Ala-Asp-CH2F; configuration not given here)
- inhibition of TRA-8-induced cell death (Jurkat cells): completely inhibited

Molecule: IL-1b: proinflammatory cytokine
- production of MMPs (MMP-1 and MMP-3): increased

- binding activity to DR4 (DR4): bound to DR4
Molecule: TRAIL: soluble recombinant human TRAIL (aa 95 to 281) with FLAG tag, Alexis; used with anti-FLAG crosslinker
- susceptibility to apoptosis (Daudi): much less susceptible
- susceptibility to apoptosis (H-9 cells): resistant
- sensitivity to apoptosis (Hs683 and U251-MG): resistant
- susceptibility to apoptosis (Jurkat and CEM-6): highly susceptible
- susceptibility to apoptosis (Molt-4 and U937 cells): partially susceptible
- susceptibility to apoptosis [1]: resistant
- susceptibility to apoptosis (SKW6.4, EB-3, and Raji): very susceptible
- sensitivity to apoptosis (U87, U937 and Molt-4): exhibited sensitivity
- apoptosis after treatment (primary B cells): did not undergo apoptosis
- susceptibility to apoptosis (OA synovial cells): completely resistant
- cell death (RA synovial cells): ~100%
- NF-κb activation (NF-κb): activated in a time-dependent fashion
- production of MMPs (MMP-1 and MMP-3): not associated with increased release
- hepatocytes killed (normal human hepatocytes; 6-hour culture, 500 ng/ml TRAIL): Over 20%
- hepatocytes killed (normal human hepatocytes; 24-hour culture, 1 μg/ml, TRAIL plus crosslinker): more than 80%
- hepatocytes killed in the presence of cycloheximide (normal human hepatocytes; four-hour culture, 1 μg/ml cycloheximide): greater than 70%

Molecule: TNF-α
- NF-κb activation (NF-κb): activated in a time-dependent fashion
- production of MMPs (MMP-1 and MMP-3): increased

Molecule: COc1cccc2c1C(=O)c1c(O)c3c(c(O)c1C2=O)C[C@@](O)(C(=O)CO)C[C@@H]3O[C@H]1C[C@H](N)[C@H](O)[C@H](C)O1 [Adriamycin, adriamycin]
- Complete Regressions No relapse (%) [2, 3]: 0
- Complete Regressions Total (%) [2, 3]: 0
- complete regressions of tumor ([2]; individual experiments (FIG. 25-27), animals): no complete regressions
- inhibition of tumor growth compared to untreated controls ([2]; individual experiments, TRA-8 200 μg i.p. x6, Kruskal-Wallis test): did not differ from controls
- intense TUNEL stained cells (2LMP xenografts): 6%

B1: Fas ligand: recombinant soluble Fas ligand used with enhancer (protein, UniProt P48023 103-281, looked up)
extracellular domain: QLFHLQKELAELRESTSQMHTASSLEKQIGHPSPPPEKKELRKVAHLTGKSNSRSMPLEWEDTYGIVLLSGVKYKKGGLVINETGLYFVYSKVYFRGQSCNNLPLSHKVYMRNSKYPQDLVMMEGKMMSYCTTGQMWARSSYLGAVFNLTSADHLYVNVSELSLVNFEESQTFFGLYKL
modifications: extracellular domain
notes: recombinant soluble Fas ligand used with enhancer
- NF-κb activation (NF-κb): unable to induce NF-κb activation
